Data on one compound can be found in ChEMBL document CHEMBL4665731, “Antifungal trichothecene sesquiterpenes obtained from the culture broth of marine-derived Trichoderma cf. brevicompactum and their structure-activity relationship” (2020).

SMILES strings stand for the structures. ≈ marks a conversion by molar mass, not a printed value.

Common to all, as to format: functional
Assay [1] has as its system Candida albicans. As to the kind of experiment: Antifungal activity against Candida albicans NBRC1594 assessed as reduction in fungal growth incubated for 24 hrs by CLSI broth microdilution method. On the technique in general: Broth dilution looks for growth in wells or tubes with falling amounts of substance.
For assay [2], the system named is Cryptococcus neoformans. Put plainly: Antifungal activity against Cryptococcus neoformans ATCC 14116 assessed as reduction in fungal growth incubated for 72 hrs by CLSI broth microdilution method.
The subject of assay [3] is Aspergillus fumigatus. Put plainly: Antifungal activity against Aspergillus fumigatus NBRC 96918 assessed as reduction in fungal growth incubated for 48 hrs by CLSI broth microdilution method.
For assay [4], the system named is Rhizopus arrhizus. Put plainly: Antifungal activity against Rhizopus oryzae NBRC 31005 assessed as reduction in fungal growth incubated for 24 hrs by CLSI broth microdilution method.

As usually defined, the MIC90 is the lowest concentration that inhibits either 90% of growth or 90% of the strains tested, depending on the study. For `C[C@@H]1[C@H](O)[C@@H](C)/C=C/C=C/C=C/C=C/C=C/C=C/C=C/[C@H](O[C@@H]2O[C@H](C)[C@@H](O)[C@H](N)[C@@H]2O)C[C@@H]2O[C@](O)(C[C@@H](O)C[C@@H](O)[C@H](O)CC[C@@H](O)C[C@@H](O)CC(=O)O[C@H]1C)C[C@H](O)[C@H]2C(=O)O` [AMPHOTERICIN B], the MIC90 in assay [1] was 0.5 µg/mL (≈ 0.541 µM); in assay [2], 1 µg/mL (≈ 1.08 µM); in assay [3], 2 µg/mL (≈ 2.16 µM); in assay [4] it was 1 µg/mL (≈ 1.08 µM).
